Reference: the NIST ThermoML archive (doi:10.1021/je049662k)
Numbers after ± are expanded uncertainties.

Details: Liquid, Falling or rolling sphere viscometry

Cc1ccccc1 [toluene]
viscosity [mPa·s]
Details | 303.15 K | 313.15 K | 323.15 K | 333.15 K | 343.15 K | 353.15 K
100 kPa | 0.525 ± 0.021 | 0.469 ± 0.019 | 0.422 ± 0.017 | 0.382 ± 0.016 | 0.349 ± 0.014 | 0.32 ± 0.013
1000 kPa | 0.526 ± 0.021 | 0.474 ± 0.019 | 0.427 ± 0.017 | 0.386 ± 0.016 | 0.351 ± 0.014 | 0.32 ± 0.013
5000 kPa | 0.544 ± 0.022 | 0.487 ± 0.02 | 0.439 ± 0.018 | 0.397 ± 0.016 | 0.362 ± 0.015 | 0.331 ± 0.013
10000 kPa | 0.568 ± 0.023 | 0.509 ± 0.021 | 0.458 ± 0.019 | 0.413 ± 0.017 | 0.376 ± 0.015 | 0.344 ± 0.014
15000 kPa | 0.593 ± 0.024 | 0.529 ± 0.022 | 0.476 ± 0.019 | 0.43 ± 0.018 | 0.391 ± 0.016 | 0.359 ± 0.015
20000 kPa | 0.617 ± 0.025 | 0.55 ± 0.022 | 0.495 ± 0.02 | 0.446 ± 0.018 | 0.406 ± 0.017 | 0.373 ± 0.015
25000 kPa | 0.64 ± 0.026 | 0.57 ± 0.023 | 0.514 ± 0.021 | 0.463 ± 0.019 | 0.421 ± 0.017 | 0.387 ± 0.016
30000 kPa | 0.662 ± 0.027 | 0.59 ± 0.024 | 0.533 ± 0.022 | 0.48 ± 0.02 | 0.437 ± 0.018 | 0.401 ± 0.016
35000 kPa | 0.685 ± 0.028 | 0.61 ± 0.025 | 0.552 ± 0.022 | 0.497 ± 0.02 | 0.453 ± 0.018 | 0.415 ± 0.017
40000 kPa | 0.707 ± 0.029 | 0.63 ± 0.026 | 0.572 ± 0.023 | 0.515 ± 0.021 | 0.469 ± 0.019 | 0.429 ± 0.017
45000 kPa | 0.729 ± 0.03 | 0.651 ± 0.027 | 0.592 ± 0.024 | 0.533 ± 0.022 | 0.485 ± 0.02 | 0.443 ± 0.018
50000 kPa | 0.752 ± 0.031 | 0.671 ± 0.027 | 0.612 ± 0.025 | 0.551 ± 0.022 | 0.502 ± 0.02 | 0.458 ± 0.019
55000 kPa | 0.774 ± 0.032 | 0.693 ± 0.028 | 0.633 ± 0.026 | 0.571 ± 0.023 | 0.52 ± 0.021 | 0.473 ± 0.019
60000 kPa | 0.797 ± 0.032 | 0.715 ± 0.029 | 0.654 ± 0.027 | 0.59 ± 0.024 | 0.537 ± 0.022 | 0.488 ± 0.02
